Structures can show the parent of a compound that is named as a salt. Where two headings read alike, the source gives them in different places. Values belong to the molecule of their own block, whether it stands above or below them.
How the values were obtained:
[1] = molecular target: T1, tyrosinase (derived from mushrooms) (Agaricus bisporus, UniProt C7FF04); experiment: Test for evaluating inhibition of tyrosinase activity (DOPA substrate, absorbance at 475 nm); format: biochemical
T1 construct: purchased Sigma
Protocol: (§1) After 2 minutes of the addition, the test solution was subjected to measurement of absorbance at 475 nm. Thus-obtained absorbance value was defined as D1. As a control, the same measurement was conducted on a test solution in which each sample was replaced with purified water, and the obtained absorbance value was defined as D2. An inhibition rate of tyrosinase activity was calculated by the following formula.

[2] = tested on: tyrosinase (derived from mushrooms); experiment: as above; format: biochemical; conditions: for Tyrosinase activity inhibition rate in the case of using both components/Sum of tyrosinase activity inhibition rate in the case of using each component alone: no second component; for Inhibition rate of tyrosinase activity in the case of conbining human manganese SOD/Inhibition rate of tyrosinase activity in the case without addition of human manganese SOD: (B-1) 0 unit/mL
Protocol: as §1

[3] = see paragraphs 0060, 0061 and 0072 of Patent Document 6; cited from earlier work

T1 sequence (C7FF04 whole entry): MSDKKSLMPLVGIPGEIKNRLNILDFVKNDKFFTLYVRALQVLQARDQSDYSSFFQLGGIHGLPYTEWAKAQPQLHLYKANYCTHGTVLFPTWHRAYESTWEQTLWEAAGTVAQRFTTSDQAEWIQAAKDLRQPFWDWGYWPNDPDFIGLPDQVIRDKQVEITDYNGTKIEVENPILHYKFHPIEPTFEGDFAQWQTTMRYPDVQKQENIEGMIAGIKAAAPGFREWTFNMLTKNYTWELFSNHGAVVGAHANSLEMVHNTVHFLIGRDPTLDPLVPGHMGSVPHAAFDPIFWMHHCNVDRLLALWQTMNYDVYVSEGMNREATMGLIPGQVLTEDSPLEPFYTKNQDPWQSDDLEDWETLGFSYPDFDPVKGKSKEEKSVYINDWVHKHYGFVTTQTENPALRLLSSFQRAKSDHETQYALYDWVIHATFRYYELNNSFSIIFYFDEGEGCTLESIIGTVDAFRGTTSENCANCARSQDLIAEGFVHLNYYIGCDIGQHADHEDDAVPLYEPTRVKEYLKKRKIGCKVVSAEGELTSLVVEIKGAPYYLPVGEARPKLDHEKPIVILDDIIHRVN

Molecule: CCOC1=C(O)C(=O)O[C@@H]1[C@@H](O)CO [3-O-ethylascorbic acid, reference compound]
inhibition at 2500 µg/mL ([1]; (B-2) component only, 2.5 mg/mL, read-out: Inhibition rate of tyrosinase activity (%), (B) component only): 29.9%

Molecule: O=C1O[C@H]([C@@H](O)CO)C(O)=C1O [Ascorbic acid, ascorbic acid, reference compound]
inhibition at 10 µg/mL ([1]; read-out: Inhibition rate of tyrosinase activity (%), (B) component only): 28.7%

Molecule: O=C1O[C@H]([C@@H](O)CO)C([O-])=C1OS(=O)(=O)[O-].[Na+].[Na+] [Disodium ascorbyl sulfate, reference compound]
Inhibition rate of tyrosinase activity (%), (B) component only ([1]; (B-2) component only, 2.5 mg/mL): 40.5%

Molecule: O=C1O[C@H]([C@@H](O)CO)C([O-])=C1OP(=O)([O-])[O-].O=C1O[C@H]([C@@H](O)CO)C([O-])=C1OP(=O)([O-])[O-].[Mg+2].[Mg+2].[Mg+2] [Magnesium ascorbyl phosphate, magnesium ascorbyl phosphate, reference compound]
Inhibition rate of tyrosinase activity (%), (B) component only ([1]; (B-2) component only, 5 mg/mL): 11.1%

Molecule: Cc1ncc(CO)c(CO)c1O [Pyridoxine hydrochloride, pyridoxine hydrochloride, reference compound]
inhibition at 5000 µg/mL ([1]; read-out: Inhibition rate of tyrosinase activity (%)): 42.9%

Molecule: O=C1O[C@H]([C@@H](O)CO)C([O-])=C1OP(=O)([O-])[O-].[Na+].[Na+].[Na+] [Sodium ascorbyl phosphate, sodium ascorbyl phosphate, reference compound]
Inhibition rate of tyrosinase activity (%), (B) component only ([1]; (B-2) component only, 5 mg/mL): 15.6%

Molecule: OC[C@H]1O[C@@H](Oc2ccc(O)cc2)[C@H](O)[C@@H](O)[C@@H]1O [arbutin, reference compound]
inhibition rate of tyrosinase activity ([1]; arbutin solely, 3.0% by mass): 71.3%

B1: MHS:Mn-SOD: human mutant manganese SOD, third amino acid from N-terminus serine substituted with arginine (Patent Document 6) (protein, UniProt P04179 25-222, looked up, variant S3R)
Superoxide dismutase [Mn], …: KHRLPDLPYDYGALEPHINAQIMQLHHSKHHAAYVNNLNVTEEKYQEALAKGDVTAQIALQPALKFNGGGHINHSIFWTNLSPNGGGEPKGELLEAIKRDFGSFDKFKEKLTAASVGVQGSGWGWLGFNKERGHLQIAACPNQDPLQGTTGLIPLLGIDVWEHAYYLQYKNVRPDYLKAIWNVINWENVTERYMACKK
isoelectric point [3]: about 8.2

Other lines, results leading:

inhibition rate of tyrosinase activity ([1]; ascorbic acid derivative (ascorbyl glucoside) solely, 2.0% by mass): 21.9%
inhibition at 5000 µg/mL ([1]; ascorbyl glucoside solely, 5 mg/mL, read-out: Inhibition rate of tyrosinase activity (%)): 8.4%
inhibition at 10000 µg/mL ([1]; ascorbyl glucoside solely, 10 mg/mL, read-out: Inhibition rate of tyrosinase activity (%)): 15.4%
inhibition at 20000 µg/mL ([1]; ascorbyl glucoside solely, 20 mg/mL, read-out: Inhibition rate of tyrosinase activity (%)): 26.8%
Molecule: O=C1O[C@H]([C@@H](O)CO)C(O)=C1O[C@H]1O[C@H](CO)[C@@H](O)[C@H](O)[C@H]1O [ascorbyl glucoside, 2-O-α-D-glucopyranosyl-L-ascorbic acid]

Tyrosinase activity inhibition rate in the case of using both components/Sum of tyrosinase activity inhibition rate in the case of using each component alone ([2]; α-lipoic acid 4.31 μg/mL): 1.00
Inhibition rate of tyrosinase activity (%) ([1]; α-lipoic acid solely, 4.31 μg/mL): 0.7%
Molecule: O=C(O)CCCCC1CCSS1 (stereo not drawn) [α-lipoic acid, 6,8-dithiooctanoic acid, reference compound]

Inhibition rate of tyrosinase activity in the case of conbining human manganese SOD/Inhibition rate of tyrosinase activity in the case without addition of human manganese SOD ([2]; (A) 1.08 μg/mL): 1.00
Tyrosinase activity inhibition rate in the case of using both components/Sum of tyrosinase activity inhibition rate in the case of using each component alone ([2]; (A) 1.08 μg/mL): 1.00
Inhibition rate of tyrosinase activity in the case of conbining human manganese SOD/Inhibition rate of tyrosinase activity in the case without addition of human manganese SOD ([2]; (A) 2.15 μg/mL): 1.00
Tyrosinase activity inhibition rate in the case of using both components/Sum of tyrosinase activity inhibition rate in the case of using each component alone ([2]; (A) 2.15 μg/mL): 1.00
Inhibition rate of tyrosinase activity in the case of conbining human manganese SOD/Inhibition rate of tyrosinase activity in the case without addition of human manganese SOD ([2]; (A) 3.23 μg/mL): 1.00
Inhibition rate of tyrosinase activity in the case of conbining human manganese SOD/Inhibition rate of tyrosinase activity in the case without addition of human manganese SOD ([2]; (A) 4.31 μg/mL): 1.00
Inhibition rate of tyrosinase activity (%) ([1]; histidine dithiooctanamide (Na/zinc) solely, 1.08 μg/mL (2.5 μM)): 13.2%
Inhibition rate of tyrosinase activity (%) ([1]; histidine dithiooctanamide (Na/zinc) solely, 2.15 μg/mL (5 μM)): 25.3%
Inhibition rate of tyrosinase activity (%) ([1]; histidine dithiooctanamide (Na/zinc) solely, 3.23 μg/mL (7.5 μM)): 53.6%
Inhibition rate of tyrosinase activity (%) ([1]; histidine dithiooctanamide (Na/zinc) solely, 4.31 μg/mL (10 μM)): 68.9%
Molecule: zinc chelate compound of N-(6,8-dimercaptooctanoyl)-L-histidine sodium salt [histidine dithiooctanamide (Na/zinc)]

Inhibition rate of tyrosinase activity (%) ([1]; human manganese SOD solely, 3 units/mL): 4.53%
Inhibition rate of tyrosinase activity (%) ([1]; human manganese SOD solely, 3 units/mL, listed as (B-1) component): 4.5%
Inhibition rate of tyrosinase activity (%) ([1]; human manganese SOD solely, 15 units/mL): 3.74%
Inhibition rate of tyrosinase activity (%) ([1]; human manganese SOD solely, 15 units/mL, listed as (B-1) component): 3.7%
Inhibition rate of tyrosinase activity (%) ([1]; human manganese SOD solely, 150 units/mL): 4.66%
Inhibition rate of tyrosinase activity (%) ([1]; human manganese SOD solely, 150 units/mL, listed as (B-1) component): 4.7%
B2: human manganese SOD: human manganese superoxide dismutase, "yeast extract (SOD)" commercially available from Biox Technologies, 3,000 units/mL (protein, UniProt P04179 25-222, looked up)
Superoxide dismutase [Mn], …: KHSLPDLPYDYGALEPHINAQIMQLHHSKHHAAYVNNLNVTEEKYQEALAKGDVTAQIALQPALKFNGGGHINHSIFWTNLSPNGGGEPKGELLEAIKRDFGSFDKFKEKLTAASVGVQGSGWGWLGFNKERGHLQIAACPNQDPLQGTTGLIPLLGIDVWEHAYYLQYKNVRPDYLKAIWNVINWENVTERYMACKK
